Experimental data: patent US8124774B2, “Therapeutic ((phenyl)imidazolyl)methylquinolinyl compounds” (Allergan, Inc., priority 2007, dated 2012)

Key:
Assay type in all cases: cell-based
alpha2A receptor = biological target: T1, alpha2A receptor (Homo sapiens, UniProt P08913); test: RSAT assay (Receptor Selection and Amplification Technology), alpha2A; details: value in parentheses; ratio of maximal effect to that of standard full agonist brimonidine (UK14304)
T1 construct: expressed in transfected cells; host or cells: NIH-3T3
T1 sequence (P08913 1-465): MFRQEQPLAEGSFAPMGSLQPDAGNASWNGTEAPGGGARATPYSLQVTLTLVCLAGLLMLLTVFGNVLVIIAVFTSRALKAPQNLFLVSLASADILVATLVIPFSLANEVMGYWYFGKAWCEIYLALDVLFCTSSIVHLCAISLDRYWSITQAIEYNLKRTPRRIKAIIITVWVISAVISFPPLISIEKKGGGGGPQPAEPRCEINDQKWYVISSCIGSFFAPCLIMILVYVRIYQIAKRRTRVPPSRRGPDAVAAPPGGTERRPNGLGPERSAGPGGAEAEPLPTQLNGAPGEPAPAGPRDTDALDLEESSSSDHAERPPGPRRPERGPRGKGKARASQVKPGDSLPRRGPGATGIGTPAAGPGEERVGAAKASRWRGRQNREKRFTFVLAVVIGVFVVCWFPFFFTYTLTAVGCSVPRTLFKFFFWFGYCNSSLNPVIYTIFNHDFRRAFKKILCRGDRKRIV
Description: (§1) Receptor Selection and Amplification Technology (RSAT) Assay
(§2) The RSAT assay measures a receptor-mediated loss of contact inhibition that results in selective proliferation of receptor-containing cells in a mixed population of confluent cells. The increase in cell number is assessed with an appropriate transfected marker gene such as β-galactosidase, the activity of which can be easily measured in a 96-well format. Receptors that activate the G protein, Gq, elicit this response. Alpha2 receptors, which normally couple to Gi, activate the RSAT response when coexpressed with a hybrid Gq protein that has a Gi receptor recognition domain, called Gq/i5.
NIH-3T3 cells are plated at a density of 2×10^6 cells in 15 cm dishes and maintained in Dulbecco's modified Eagle's medium supplemented with 10% calf serum. […] After washing with phosphate-buffered saline, β-galactosidase enzyme activity is determined by adding 200 μl of the chromogenic substrate (consisting of 3.5 mM o-nitrophenyl-β-D-galactopyranoside and 0.5% nonidet P-40 in phosphate buffered saline), incubating overnight at 30° C. and measuring optical density at 420 nm. The absorbance is a measure of enzyme activity, which depends on cell number and reflects a receptor-mediated cell proliferation. […]

alpha2c receptor = biological target: T2, alpha2c receptor (Homo sapiens, UniProt P18825); test: RSAT assay (Receptor Selection and Amplification Technology), alpha2C; details: for EC50: NIH-3T3 cells cotransfected with receptor and Gq/i5, read-out: Alpha 2C potency EC50; for Alpha 2C intrinsic activity (efficacy): value in parentheses, ratio of maximal effect to that of standard full agonist brimonidine (UK14304)
T2 construct: expressed in transfected cells; host or cells: NIH-3T3
T2 sequence (P18825 1-462): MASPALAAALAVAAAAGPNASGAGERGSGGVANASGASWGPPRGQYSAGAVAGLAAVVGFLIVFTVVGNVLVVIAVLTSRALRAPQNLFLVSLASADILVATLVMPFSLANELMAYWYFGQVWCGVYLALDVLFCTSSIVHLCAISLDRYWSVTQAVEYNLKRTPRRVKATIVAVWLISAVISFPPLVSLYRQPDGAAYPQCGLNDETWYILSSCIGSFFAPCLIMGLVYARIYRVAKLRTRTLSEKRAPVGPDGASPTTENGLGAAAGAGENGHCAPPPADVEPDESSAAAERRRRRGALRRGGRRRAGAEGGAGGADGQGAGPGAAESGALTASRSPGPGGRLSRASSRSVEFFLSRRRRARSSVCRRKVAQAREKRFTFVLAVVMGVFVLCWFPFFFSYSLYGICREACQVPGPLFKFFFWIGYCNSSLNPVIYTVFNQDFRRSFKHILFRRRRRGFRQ
Description: as §1, §2
(§3) NIH-3T3 cells are plated at a density of 2×10^6 cells in 15 cm dishes and maintained in Dulbecco's modified Eagle's medium supplemented with 10% calf serum. One day later, cells are cotransfected by calcium phosphate precipitation with mammalian expression plasmids encoding p-SV-β-galactosidase (5-10 μg), receptor (1-2 μg) and G protein (1-2 μg). 40 μg salmon sperm DNA may also be included in the transfection mixture. Fresh media is added on the following day and 1-2 days later, cells are harvested and frozen in 50 assay aliquots. Cells are thawed and 100 μl added to 100 μl aliquots of various concentrations of drugs in triplicate in 96-well dishes. Incubations continue 72-96 hr at 37° C. After washing with phosphate-buffered saline, β-galactosidase enzyme activity is determined by adding 200 μl of the chromogenic substrate (consisting of 3.5 mM o-nitrophenyl-β-D-galactopyranoside and 0.5% nonidet P-40 in phosphate buffered saline), incubating overnight at 30° C. and measuring optical density at 420 nm. The absorbance is a measure of enzyme activity, which depends on cell number and reflects a receptor-mediated cell proliferation. The efficacy or intrinsic activity is calculated as a ratio of the maximal effect of the drug to the maximal effect of a standard full agonist for each receptor subtype. Brimonidine, also called UK14304, the chemical structure of which is shown below, is used as the standard agonist for the alpha2A, alpha2B and alpha2c receptors. The EC50 is the concentration at which the drug effect is half of its maximal effect.
(§4) EC50 values are nanomolar. ND stands for “not determinable” at concentrations less than 10 micromolar. IA stands for “intrinsic activity.”

alpha2B receptor = biological target: T3, alpha2B receptor (Homo sapiens, UniProt P18089); test: RSAT assay (Receptor Selection and Amplification Technology), alpha2B; details: for EC50: NIH-3T3 cells cotransfected with receptor and Gq/i5, read-out: Alpha 2B potency EC50; for Alpha 2B intrinsic activity (efficacy): value in parentheses, ratio of maximal effect to that of standard full agonist brimonidine (UK14304)
T3 construct: expressed in transfected cells; host or cells: NIH-3T3
T3 sequence (P18089 1-450): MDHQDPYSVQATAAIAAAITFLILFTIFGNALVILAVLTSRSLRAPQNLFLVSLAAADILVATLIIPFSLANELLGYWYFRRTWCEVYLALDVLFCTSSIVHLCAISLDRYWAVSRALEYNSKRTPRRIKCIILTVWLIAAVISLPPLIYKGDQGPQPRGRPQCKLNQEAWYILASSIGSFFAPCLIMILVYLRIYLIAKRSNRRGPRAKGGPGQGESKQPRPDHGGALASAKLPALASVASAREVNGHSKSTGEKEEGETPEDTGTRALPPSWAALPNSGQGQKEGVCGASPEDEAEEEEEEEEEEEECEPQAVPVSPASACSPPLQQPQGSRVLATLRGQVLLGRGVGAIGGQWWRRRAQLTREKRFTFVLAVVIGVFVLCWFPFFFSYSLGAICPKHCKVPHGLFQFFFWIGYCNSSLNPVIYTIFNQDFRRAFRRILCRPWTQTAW
Description: as §1, §2, §3, §4

## c1ccc(C(c2cnc[nH]2)c2cccc3ncccc23)cc1 (stereo not shown) [5-((1H-imidazol-5-yl)(phenyl)methyl)quinoline]
alpha2A receptor
  Alpha 2A intrinsic activity (efficacy): 0.12
alpha2c receptor
  EC50: 50 nM
  Alpha 2C intrinsic activity (efficacy): 0.33
alpha2B receptor
  EC50: 319 nM
  Alpha 2B intrinsic activity (efficacy): 0.89

## c1ccc(C(c2cnc[nH]2)c2cccc3cccnc23)cc1 (stereo not shown) [8-((1H-imidazol-5-yl)(phenyl)methyl)quinoline]
alpha2A receptor
  Alpha 2A intrinsic activity (efficacy): 0.09
alpha2c receptor
  EC50: 832 nM
  Alpha 2C intrinsic activity (efficacy): 0.61
alpha2B receptor
  EC50: 23 nM
  Alpha 2B intrinsic activity (efficacy): 1.16
